Measurements: patent US20120015925A1, “NOVEL BENZOTHIAZEPINE AND BENZOTHIEPINE COMPOUNDS” (ASAHI KASEI PHARMA CORPORATION, priority 2004, published 2012)

Assays:
[1] = tested on: rats with partial ligation of the bile duct dosed bile acid; assay: Model for hepatic disorder associated with cholestasis (partial bile duct ligation model), Protocol A: AST, ALT, ALP; format: in vivo, rat; settings: Table 11, Protocol A, ursodeoxycholic acid 50 mg/kg oral twice per day for 3.5 days, N=8, mean±standard error
Source text: (§1) In the present Test Example, a model for the hepatic disorder caused by partial ligation of the bile duct was employed with reference to Kanno's method (Liver, 43, Suppl(1):A126, 2002).
(§2) That is, to the SD (IGS) strain male rats at 7 to 10 weeks of age, the partial ligation of the bile duct was given with opening the abdominal cavity under anesthesia with pentobarbital. Before the operation, the blood was collected from femoral vein, in order to obtain the value before the administration. From the day after the operation, 200 mg/kg of bile acid and the test compound were orally administered forcibly twice per day for 3.5 days (Protocol A). Without giving the partial ligation of the bile duct, 200 mg/kg of bile acid and the test compound were also orally administered forcibly twice per day for 3.5 days (Protocol B). In both cases, the test compound was dissolved or suspended in distilled water or an aqueous solution of 1% HCO 60 (Nippon Chemicals). To the control group, saline was administered. As comparative examples, 25 mg/kg of cholestyramine (supplied from Sigma) or 50 mg/kg of ursodeoxycholic acid (supplied from Mitsubishi Pharma) was administered. For considering the effect of the operation, sham operation (sham group) was performed in some cases. The blood was collected from the abdominal aorta 6 hours after the drug administration on the final day of the experiment. AST (GOT), ALT (GPT) and ALP in the blood were measured using measurement kits (GOT II-HA Test Wako, GPT II-HA Test Wako and Alkaline Phosphor HA Test Wako, all were supplied from Wako Pure Chemical Industries) and using an automatic analyzer (Nitech ANALAYZER SUPER Z818).

rats dosed cholic acid = assay: Lowering effect on bile acid concentrations in portal vein blood in rats dosed cholic acid; format: in vivo, rat; settings: 0.1 mg/kg oral; surfactant Tween 20 0.05%; cholic acid 200 mg/kg; portal vein blood 2 hours after administration
Description: In the present Test Example, a lowering effect on bile acid concentrations in portal vein blood in rats dosed cholic acid was evaluated according to the method described in Jpn. Pharmacol. Ther., Vol. 24 Supplement, 1996, 103(S-577)-110(S-584).
That is, SD (IGS) strain male rats at 7 to 9 weeks of age were fasted one day before the administration date. […] The blood was collected from the portal vein 2 hours after the forced oral administration, and a total bile acid value in serum was measured to examine the effect of the test compound (n=6). As a control, another group (n=6) merely received cholic acid (200 mg/kg), to which the same procedure was applied. The cholic acid value was measured using the commercially available kit (brand name: Total Bile Acid-Test Wako, supplied form Wako Pure Chemical Industries). Defining the value in the control group to which no test compound had been administered as being 100%, a reduction rate (%) of the bile acid value when a certain amount of the test compound had been administered was calculated.

rats dosed bile acid = assay: Model for hepatic disorder associated with cholestasis, Protocol B (bile acid without partial ligation): AST, ALT, ALP; format: in vivo, rat; settings: Table 13, Protocol B, ursodeoxycholic acid 50 mg/kg oral twice per day for 3.5 days, N=8, mean±standard error
Source text: as §1, §2

Caco-2 cells [2] = assay: Measurement of permeability through Caco-2 cell; format: in vitro ADME, human; settings: 2 hours
Description: Permeability of the compound described in Examples through Caco-2 cells was studied with reference to Artursson Per et al.'s method (Journal of Pharmaceutical Sciences, 79(6): 476-482:1990).
Transwell cell culture chamber (Costar) having a membrane filter coated with collagen (3 μm pores, 0.33 cm^2 growth area) was placed on a 24-well plate. Caco-2 cells (purchased from ATCC) were seeded at the amount of 6.6×10^4 cells/filter (2×10^5 cells/cm^2) (D-MEM medium, 10% FBS (Fetal Bovine Serum), 0.1 mM NEAA (Non Essential Amino Acid), 100 U/mL penicillin, 100 μg/mL streptomycin, supplied from Gibco, and 25 mM glucose). Each Transwell cell culture chamber was placed in each well in a 24-well plate. 0.75 mL of the medium was filled in an external chamber and 0.15 mL of the medium was filled in an internal chamber. The medium was changed every 2 to 3 days, and 18 to 25 days after seeding when a single layer of Caco-2 cells was formed, the cells were used for the test.
In the test for examining the permeability of the compound, the Caco-2 cells cultured in the chamber were used. The internal and external chamber solutions were replaced twice with Hanks balanced salt solution (HBSS) containing 25 mM glucose, 10 mM Hepes and 0.05% Tween 80. […] A permeability coefficient (Papp) was calculated from the formula Papp=dQ/dt/(Co×A). […]

Caco-2 cells [3] = assay: Facilitation effect on permeability of combined compound (pravastatin, atorvastatin) through Caco-2 cells
Description: The permeability through Caco-2 cells was measured by the same way as in Test Example 15.
It was examined whether the permeability coefficient of the combined compound was changed in the presence of the compound described in Examples or the compound in Comparative Examples.

male beagle dogs = assay: Effect of combination with pravastatin on plasma total cholesterol levels in dogs; format: in vivo, dog
Source text: The effect of the combination of the compounds described in Example with pravastatin (HMG-CoA reductase inhibitor) on plasma cholesterol levels in dogs was examined.
To male beagle dogs (supplied from Kitayama Labes, body weight 9 to 13 kg), usual solid feedstuff (DS-A: Oriental Yeast Co., Ltd.) was given once daily at 13:00 to 14:00. The light was turned on from 7:00 to 19:00 as a light period, and the remaining was defined as a dark period. Water was given ad libitum. In the morning in the week prior to the administration, the blood was collected with heparin from forearm cephalic vein, and plasma was collected by centrifugation. The total cholesterol level of this plasma was measured using the commercially available cholesterol level measurement kit by the enzymatic method (Cholesterol-E Test Wako). The dogs were grouped so that the total cholesterol levels were almost equal. Sodium pravastatin (1 mg/kg, Sankyo) alone or 3 mg/kg of the compound described in each of Examples alone or the combination thereof was orally administered once daily just before feeding for 7 days. Pravastatin was dissolved in distilled water, and the compound described in Example was suspended in 0.5% methylcellulose solution for administration. On the day after the final administration, the blood was collected from the forearm cephalic vein under starving, to which plasma was obtained. The total cholesterol level therein was measured by the same way. As a result, the total cholesterol level in the plasma was reduced by 7 mg/dL (6%) by orally administering 1 mg/kg/day of pravastatin for 7 days. The total cholesterol level in the plasma was reduced by […] (3 to 8%) by orally administering 3 mg/kg/day of the compound described in each of Examples for 7 days. When pravastatin and the compound described in each of Examples were co-administered at this dosages, the total cholesterol in the plasma was reduced by 14 to 24 mg/dL (12 to 20%). The reduction rate of the total cholesterol level was larger in the co-administration with the compound described in Example than in the administration of pravastatin alone, and the augmented effect by the co-administration was observed.

[4] = pravastatin 1 mg/kg alone, oral once daily for 7 days, vehicle 1

SMILES: C[C@H](CCC(=O)O)[C@H]1CC[C@H]2[C@@H]3[C@@H](O)C[C@@H]4C[C@H](O)CC[C@]4(C)[C@H]3CC[C@]12C [Comparative Example 2, ursodeoxycholic acid, reference compound]
- ALT ([1]; control group 200 ± 81): 98 ± 25 IU/L
- AST ([1]; control group 400 ± 160): 256 ± 64 IU/L
- ALP ([1]; control group 1120 ± 410): 785 ± 120 IU/L
- BILE ACID REDUCTION RATE (%) IN RAT MODEL WITH CHOLIC ACID LOADING (rats dosed cholic acid): 3%
- ALT (rats dosed bile acid; control group 82 ± 17): 62 ± 9 IU/L
- AST (rats dosed bile acid; control group 157 ± 35): 109 ± 11 IU/L
- ALP (rats dosed bile acid; control group 593 ± 77): 453 ± 58 IU/L

SMILES: CC(C)NCC(O)COc1cccc2ccccc12 (centres unmarked) [Propranolol]
- PERMEATION RATIO (PERMEATION × 10^−6 cm/s) (Caco-2 cells [2]; 100 μM in internal chamber, HBSS pH 7.4, 37° C.): 29.4 × 10^−6 cm/s
- permeability coefficient (Papp) through Caco-2 cells (Caco-2 cells [2]; 100 μM, 37° C., pH 7.4): high permeability coefficients

SMILES: CC[C@H](C)C(=O)O[C@H]1C[C@H](O)C=C2C=C[C@H](C)[C@H](CC[C@@H](O)C[C@@H](O)CC(=O)O)[C@H]21 [pravastatin, reference compound]
- RATE OF INCREASE (%) (Caco-2 cells [3]; statin alone (reference = 100)): 100%
- […] (PERMEATION × 10^−6 cm/s) (Caco-2 cells [3]; statin alone, 25 μM, 37° C., 2 hours): 0.33 × 10^−6 cm/s
- plasma total cholesterol BEFORE TREATMENT (male beagle dogs; pravastatin 1 mg/kg alone group, baseline, N=4, mean±standard error): 114 ± 6 mg/dL
- plasma total cholesterol AFTER TREATMENT (male beagle dogs; pravastatin 1 mg/kg alone, oral once daily for 7 days, N=4, mean±standard error): 106 ± 5 mg/dL
- plasma total cholesterol BEFORE TREATMENT − AFTER TREATMENT (male beagle dogs; [4]): 7 mg/dL
- reduction rate with respect to the data before administration (number in parenthesis) (male beagle dogs; [4]): 6
- total cholesterol level in the plasma reduced by (male beagle dogs; pravastatin alone 1 mg/kg/day oral, 7 days): 7 mg/dL
- total cholesterol level in the plasma, reduction rate (male beagle dogs; pravastatin alone 1 mg/kg/day oral, 7 days, with respect to before administration): 6%
